Laboratory results reported in PubChem BioAssay (NCI).
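In this assay, cells in 96-well plates receive the compound at five concentrations for 48 hours. Endpoints are linearly interpolated between the surrounding concentrations. GI50 = concentration required for 50% inhibition of growth. The concentration for full growth arrest is given as TGI.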

What was measured:
Experiment in all cases: NCI anticancer screen, dose series, 48 h
M14 melanoma = system: M14 melanoma
HOP-62 NSCLC = system: HOP-62 NSCLC
PC-3 prostate = system: PC-3 prostate
IGROV1 ovarian = system: IGROV1 ovarian
SN12C renal = system: SN12C renal
NCI-H23 lung = system: NCI-H23 lung
SNB-75 CNS = system: SNB-75 CNS
U251 CNS = system: U251 CNS
NCI-H460 lung = system: NCI-H460 lung
MALME-3M melanoma = system: MALME-3M melanoma
COLO 205 colon = system: COLO 205 colon
UACC-62 melanoma = system: UACC-62 melanoma
OVCAR-5 ovarian = system: OVCAR-5 ovarian
TK-10 renal = system: TK-10 renal
T-47D breast = system: T-47D breast
SF-295 CNS = system: SF-295 CNS
NCI/ADR-RES ovarian = system: NCI/ADR-RES ovarian
DU-145 prostate = system: DU-145 prostate
UO-31 renal = system: UO-31 renal
BT-549 breast = system: BT-549 breast
SNB-19 CNS = system: SNB-19 CNS
K-562 leukemia = system: K-562 leukemia
UACC-257 melanoma = system: UACC-257 melanoma
MDA-MB-231 breast = system: MDA-MB-231 breast
SK-OV-3 ovarian = system: SK-OV-3 ovarian
HCT-116 colon = system: HCT-116 colon
HOP-92 NSCLC = system: HOP-92 NSCLC
SF-268 CNS = system: SF-268 CNS
MOLT-4 leukemia = system: MOLT-4 leukemia
CCRF-CEM leukemia = system: CCRF-CEM leukemia
HT29 colon = system: HT29 colon
RXF 393 renal = system: RXF 393 renal
SK-MEL-28 melanoma = system: SK-MEL-28 melanoma
HCC-2998 colon = system: HCC-2998 colon
HL-60(TB) leukemia = system: HL-60(TB) leukemia
A549 NSCLC = system: A549 NSCLC
SR leukemia = system: SR leukemia
NCI-H226 lung = system: NCI-H226 lung
LOX IMVI melanoma = system: LOX IMVI melanoma
ACHN renal = system: ACHN renal
HCT-15 colon = system: HCT-15 colon
KM12 colon = system: KM12 colon
OVCAR-3 ovarian = system: OVCAR-3 ovarian
SK-MEL-5 melanoma = system: SK-MEL-5 melanoma
HS 578T breast = system: HS 578T breast
CAKI-1 renal = system: CAKI-1 renal
SW-620 colon = system: SW-620 colon
OVCAR-8 ovarian = system: OVCAR-8 ovarian
NCI-H522 lung = system: NCI-H522 lung
MCF7 breast = system: MCF7 breast
RPMI-8226 leukemia = system: RPMI-8226 leukemia
OVCAR-4 ovarian = system: OVCAR-4 ovarian
SK-MEL-2 melanoma = system: SK-MEL-2 melanoma
EKVX NSCLC = system: EKVX NSCLC
A498 renal = system: A498 renal

For `CO[C@H]1/C=C(/C)CCC[C@H](C)[C@H](O)[C@@H](C)C(=O)C(C)(C)[C@@H](O)CC(=O)O[C@@H]1/C(C)=C/c1csc(C)n1`, the GI50 (M14 melanoma) was 21.8 nM, the TGI (M14 melanoma) was greater than 100000 nM and the GI50 (HOP-62 NSCLC) was 41.4 nM. For the same compound, the TGI (HOP-62 NSCLC) was greater than 100000 nM, the GI50 (PC-3 prostate) was 36.1 nM and the TGI (PC-3 prostate) was greater than 100000 nM. It also gave a GI50 (IGROV1 ovarian) of 24.1 nM, a TGI (IGROV1 ovarian) greater than 100000 nM and a GI50 (SN12C renal) of 48.8 nM. The TGI (SN12C renal) was greater than 100000 nM, the GI50 (NCI-H23 lung) was 34.9 nM and the TGI (NCI-H23 lung) was greater than 100000 nM. For the same compound, the GI50 (SNB-75 CNS) was less than 10 nM, the TGI (SNB-75 CNS) was 31.9 nM and the GI50 (U251 CNS) was 14.3 nM. The TGI (U251 CNS) was greater than 100000 nM, the GI50 (NCI-H460 lung) was less than 10 nM and the TGI (NCI-H460 lung) was greater than 100000 nM. For the same compound, the GI50 (MALME-3M melanoma) was 17 nM, the TGI (MALME-3M melanoma) was greater than 100000 nM and the GI50 (COLO 205 colon) was 15.9 nM. For the same compound, the TGI (COLO 205 colon) was 75.5 nM, the GI50 (UACC-62 melanoma) was 28.7 nM and the TGI (UACC-62 melanoma) was greater than 100000 nM. For the same compound, the GI50 (OVCAR-5 ovarian) was 43.6 nM, the TGI (OVCAR-5 ovarian) was greater than 100000 nM and the GI50 (TK-10 renal) was 36.6 nM. For the same compound, the TGI (TK-10 renal) was greater than 100000 nM, the GI50 (T-47D breast) was 66.8 nM and the TGI (T-47D breast) was greater than 100000 nM. The GI50 (SF-295 CNS) was less than 16.8 nM, the TGI (SF-295 CNS) was 279 nM and the GI50 (NCI/ADR-RES ovarian) was 25.2 nM. It also gave a TGI (NCI/ADR-RES ovarian) of 128 nM, a GI50 (DU-145 prostate) of 25.9 nM and a TGI (DU-145 prostate) of 81.7 nM. It also gave a GI50 (UO-31 renal) of 33.4 nM, a TGI (UO-31 renal) greater than 100000 nM and a GI50 (BT-549 breast) of 49.8 nM. It also gave a TGI (BT-549 breast) greater than 100000 nM, a GI50 (SNB-19 CNS) of 48.6 nM and a TGI (SNB-19 CNS) greater than 100000 nM. It also gave a GI50 (K-562 leukemia) of less than 17.3 nM, a TGI (K-562 leukemia) greater than 100000 nM and a GI50 (UACC-257 melanoma) of 45.2 nM. For the same compound, the TGI (UACC-257 melanoma) was greater than 100000 nM, the GI50 (MDA-MB-231 breast) was 42.8 nM and the TGI (MDA-MB-231 breast) was greater than 100000 nM. The GI50 (SK-OV-3 ovarian) was 27.2 nM, the TGI (SK-OV-3 ovarian) was greater than 77200 nM and the GI50 (HCT-116 colon) was less than 12.9 nM. It also gave a TGI (HCT-116 colon) greater than 100000 nM, a GI50 (HOP-92 NSCLC) of 38 nM and a TGI (HOP-92 NSCLC) greater than 100000 nM. For the same compound, the GI50 (SF-268 CNS) was 34.6 nM, the TGI (SF-268 CNS) was greater than 100000 nM and the GI50 (MOLT-4 leukemia) was 35.9 nM. For the same compound, the TGI (MOLT-4 leukemia) was greater than 100000 nM, the GI50 (CCRF-CEM leukemia) was 30 nM and the TGI (CCRF-CEM leukemia) was greater than 100000 nM. The GI50 (HT29 colon) was less than 10 nM, the TGI (HT29 colon) was 525 nM and the GI50 (RXF 393 renal) was 18.7 nM. The TGI (RXF 393 renal) was 72.5 nM, the GI50 (SK-MEL-28 melanoma) was 44.5 nM and the TGI (SK-MEL-28 melanoma) was greater than 100000 nM. It also gave a GI50 (HCC-2998 colon) of 20.3 nM, a TGI (HCC-2998 colon) of 259 nM and a GI50 (HL-60(TB) leukemia) of less than 10 nM. For the same compound, the TGI (HL-60(TB) leukemia) was greater than 100000 nM, the GI50 (A549 NSCLC) was 21.9 nM and the TGI (A549 NSCLC) was greater than 100000 nM. For the same compound, the GI50 (SR leukemia) was 15.1 nM, the TGI (SR leukemia) was greater than 58200 nM and the GI50 (NCI-H226 lung) was 32.4 nM. For the same compound, the TGI (NCI-H226 lung) was greater than 100000 nM, the GI50 (LOX IMVI melanoma) was 16.2 nM and the TGI (LOX IMVI melanoma) was greater than 100000 nM. The GI50 (ACHN renal) was 55.5 nM, the TGI (ACHN renal) was greater than 100000 nM and the GI50 (HCT-15 colon) was less than 12.8 nM. For the same compound, the TGI (HCT-15 colon) was greater than 100000 nM, the GI50 (KM12 colon) was less than 12.9 nM and the TGI (KM12 colon) was greater than 100000 nM. It also gave a GI50 (OVCAR-3 ovarian) of less than 16.1 nM, a TGI (OVCAR-3 ovarian) of 111 nM and a GI50 (SK-MEL-5 melanoma) of 18.6 nM. For the same compound, the TGI (SK-MEL-5 melanoma) was greater than 100000 nM, the GI50 (HS 578T breast) was 23.4 nM and the TGI (HS 578T breast) was greater than 100000 nM. The GI50 (CAKI-1 renal) was 23.8 nM, the TGI (CAKI-1 renal) was greater than 100000 nM and the GI50 (SW-620 colon) was less than 14.8 nM. For the same compound, the TGI (SW-620 colon) was greater than 100000 nM, the GI50 (OVCAR-8 ovarian) was 27.7 nM and the TGI (OVCAR-8 ovarian) was greater than 100000 nM. For the same compound, the GI50 (NCI-H522 lung) was less than 10 nM, the TGI (NCI-H522 lung) was 22.4 nM and the GI50 (MCF7 breast) was less than 10 nM. For the same compound, the TGI (MCF7 breast) was greater than 100000 nM, the GI50 (RPMI-8226 leukemia) was 70.5 nM and the TGI (RPMI-8226 leukemia) was greater than 100000 nM. The GI50 (OVCAR-4 ovarian) was 71 nM, the TGI (OVCAR-4 ovarian) was greater than 100000 nM and the GI50 (SK-MEL-2 melanoma) was 18.6 nM. For the same compound, the GI50 (EKVX NSCLC) was 43.2 nM, the TGI (EKVX NSCLC) was greater than 100000 nM and the GI50 (A498 renal) was 23.4 nM. It also gave a TGI (A498 renal) greater than 100000 nM.
